Assay results taken from BindingDB's records for patent US20260042753 (Merck Patent, 2026).

These molecules were tested on Mast/stem cell growth factor receptor Kit [V654A] (assay: c-Kit(V654A) Assay).
Experimental: c-Kit(V654A) (N-terminal GST-tagged, recombinant human c-Kit, amino acids 544-end containing the V654A mutation) is incubated with 8 mM MOPS pH 7.0, 0.2 mM EDTA, 250 μM GGMEDIYEFMGGKKK, 10 mM MgAcetate and [gamma-33P-ATP](specific activity approx. 500 cpm/pmol, concentration 200 μM). The reaction is initiated by the addition of the MgATP mix. After incubation for 40 minutes at room temperature, the reaction is stopped by the addition of 3% phosphoric acid solution. 10 μL of the reaction is then spotted onto a P30 filtermat and washed three times for 5 minutes in 75 mM phosphoric acid and once in methanol prior to drying and scintillation counting.

SMILES | IC50
COCCOc1cc2[nH]nc(-c3cc(-c4ccc(C(=O)N5CC[C@H]6COC[C@H]6C5)cc4)no3)c2cc1F (relative stereo) [US20260042753, Compound A215] | 0.76 nM
COCCNC(=O)c1ccc(-c2cc(-c3n[nH]c4cc(C(=O)NCCOC)ccc34)on2)cc1 [US20260042753, Compound A23] | 10 nM
COCCOc1cc2[nH]nc(-c3cc(-c4ccc([SH2+]([O-])C=N)cc4)no3)c2cc1F [US20260042753, Compound A226] | 2 nM
COCCOc1cc2[nH]nc(-c3cc(-c4ccc(C(=O)N5C[C@@H]6CC(=O)N[C@@H]6C5)cc4)no3)c2cc1F (relative stereo) [US20260042753, Compound A203] | 1.4 nM
COCCOc1cc2[nH]nc(-c3cc(-c4ccc(N5CC[C@H]6[C@H]5CCN6C)cc4)no3)c2cc1F (relative stereo) [US20260042753, Compound A126] | 1.7 nM
COCCOc1cc2[nH]nc(-c3cc(-c4ccc(C(=O)N5CC[C@@H]6CNC(=O)[C@@H]65)cc4)no3)c2cc1F (relative stereo) [US20260042753, Compound A89] | 0.57 nM
COCCOc1cc2[nH]nc(-c3cc(-c4ccc(C(=O)N5C[C@H]6CCOC[C@H]6C5)cc4)no3)c2cc1F (relative stereo) [US20260042753, Compound A214] | 0.44 nM
